Test results published in patent EP0333028A1, “1-Substituted 4-pentafluorophenoxypiperidines, a process for their preparation and their use as medicaments” (HOECHST-ROUSSEL PHARMACEUTICALS INCORPORATED, priority 1988, dated 1989).

Tests used:
Type in all cases: in vivo
[1] = test system: spontaneous hypertensive rat; assay: antihypertensive activity, indirect tail cuff method (SHR); conditions: 50 mg/kg p.o. for three days, measured on the third day, decrease in mean arterial blood pressure
Method: In this procedure a group of five animals is treated orally for three days with the test compound in relation to a control group of the same number. The drop in blood pressure is measured on the third day following administration. […]

[2] = test system: male mice (Charles River, CD-1); assay: tetrabenazine induced ptosis assay (TBZ); conditions: Mus musculus, ip, 50% inhibition of tetrabenazine-induced ptosis, read-out: Antidepressant Activity TBZ ED₅₀
Method: The compounds of this invention are also useful as antidepressants by virtue of their ability to elicit an antidepressant response in mammals. […] In the tetrabenazine induced ptosis assay, male mice (Charles River, CD-1), weighing 20 to 39 g, are used in test groups of five animals. Test compounds are dissolved, or suspended with 1 drop of Tween-80, in distilled water and administered to the animals in volumes of 10 cc per kg of body weight. Tetrabenazine methanesulfonate (76.78% as the free base) is dissolved in distilled water and the concentration of the solution is adjusted so that the dose, administered intraperitoneally (i.p.) to the animals, is 40 mg of tetrabenazine base per kg of animal body weight. The test compound is administered intraperitoneally (i.p.) or perorally (p.o.) to the subject animals, and the tetrabenazine solution is administered 30 minutes or 60 minutes, respectively, thereafter. […] The subject animals are placed in individual plastic containers of the size 26.7 cm x 20.3 cm x 15.2 cm (10.1/2" x 8" x 6") thirty (i.p.) and sixty minutes (p.o.) after administration of the tetrabenazine solution, and one minute thereafter, the animals scored for ptosis on the following scale: [table] […] The results are discarded and the test is repeated, if the control score is determined to be less than 17. […]

[3] = test system: male mice (Charles River, CD-1); assay: supramaximal electroshock (SES) assay; conditions: Mus musculus, ip, protection against extensor tonus after electroshock, read-out: Anticonvulsant Activity SES ED₅₀
Method: (§1) The compounds of this invention are useful as anticonvulsants due to their anticonvulsant activity in mammals. Anticonvulsant activity is measured in male mice using the supramaximal electroshock (SES) assay described in Arch. Int. Pharmacodyn. 92, pp. 97-107, (1952) and the metrazol lethality assay (MTZ) described in J. Pharmacol. Exp. Ther., 81, 402 (1944).
Groups of male mice (Charles River, CD-1) weighing 18 to 30 g are employed in the SES assay. Test compounds are dissolved in distilled water, or if insoluble, suspended in water containing one drop of a surfactant, such as Tween-80. Test compounds are generally administered intraperitoneally at a dose of 10 ml of solution, or suspension, per kg of animal body weight. The output terminals of an A.C. shocker, which delivers 206 volts rms for 300 msec, are placed across the animals' eyes, an electrode paste coating assuring contact of the terminals with the eyes. The test compound is administered and thereafter the subject animals are shocked.
Protection is expressed as normalized percent inhibition relative to vehicle control. [formula] A time response is carried out using 6 animals per group. Animals are tested at 30, 60 and 120 minutes post drug. Additional time periods are tested if indicated by previous tests. A dose range determination is generally reserved for those compounds which inhibit convulsions by greater than about 45-55% at the screening dose employed at the time the test was performed. When the peak activity time has been determined, a dose response is initiated, using 10 animals per group at that time period.

[4] = test system: male mice (Charles River, CD-1); assay: Metrazol lethality assay (MTZ); conditions: Mus musculus, po, protection against Metrazol lethality, read-out: Anticonvulsant Activity MTZ ED₅₀
Method: as §1
Groups of male mice (Charles River, CD-1), weighing 18 to 30 grams are employed in the Metrazol lethality assay. Test compounds are dissolved in distilled water or if insoluble, suspended in water, to which a surfactant, such as Tween-80 is added. The test compounds are administered orally, the administered dose being dissolved or suspended in 10 ml of solution or suspension per kg of animal body weight. Control aminals (2 mice/group) receive water or water and Tween-80, i.e., the vehicle for administration of the test compound. Metrazol (pentylenetetrazol) is dissolved in water (concentration 225 mg of Metrazol/10 ml of solution), and the solution is administered subcutaneously to groups of five animals each at one or more time intervals of 15, 30, 60, 90, or 120 minutes after administration of the test compound. The number of animal alive 15 minutes after treatment with Metrazol is determined and recorded. The following formula is employed to calculate the percent protection against Metrazol lethality. [formula]
A dose range determination is performed by substantially the same procedure as the time response determination. In the dose range determination, five groups of 10 animals per group are employed. This determination is generally reserved for those compounds which protect against lethality by greater than 70% at the screening dose employed.

SMILES: N=C(N)NCCN1CCCCCCC1 [Guanethidine, reference compound]
- mm dec. in blood pressure at 50 mg/kg p.o. [1]: 20 mm Hg

SMILES: NC(=O)N1CCC(Oc2c(F)c(F)c(F)c(F)c2F)CC1 [Example 7, 1-Aminocarbonyl-4-(2,3,4,5,6-pentafluorophenoxy)piperidine]
- mm dec. in blood pressure at 50 mg/kg p.o. [1]: 39 mm Hg

SMILES: CN(C)CCC=C1c2ccccc2CCc2ccccc21 [Amitriptyline, reference compound]
- ED50 [2]: 1.5 mg/kg

SMILES: CCC1(c2ccccc2)C(=O)NC(=O)NC1=O [Phenobarbital, reference compound]
- ED50 [3]: 8.4 mg/kg
- ED50 [4]: 16.9 mg/kg

SMILES: CNC(=O)N1CCC(Oc2c(F)c(F)c(F)c(F)c2F)CC1 [Example 1, 1-[(N-Methylamino)carbonyl]-4-(2,3,4,5,6-pentafluorophenoxy)piperidine]
- ED50 [2]: 11.3 mg/kg
- ED50 [3]: 62.5 mg/kg
- ED50 [4]: 35.9 mg/kg

SMILES: CC(=O)N1CCC(Oc2c(F)c(F)c(F)c(F)c2F)CC1 [Example 6, 1-Acetyl-4-(2,3,4,5,6-pentafluorophenoxy)piperidine]
- mm dec. in blood pressure at 50 mg/kg p.o. [1]: 36 mm Hg

SMILES: CN(C)C(=O)N1CCC(Oc2c(F)c(F)c(F)c(F)c2F)CC1 [Example 2, 1-[(N,N-Dimethylamino)carbonyl]-4-(2,3,4,5,6-pentafluorophenoxy)piperidine]
- ED50 [3]: 50.2 mg/kg
- ED50 [4]: 40.4 mg/kg
